# Experimental data as given in PMC10058949, “Effect of N-Terminal Peptide Modifications on In Vitro and In Vivo Properties of ^177Lu-Labeled Peptide Analogs Targeting CCK2R” (Pharmaceutics, 2023).
# What was measured:
# [1] = Biodistribution 4 h p.i. in A431-CCK2R/A431-mock xenografted BALB/c nude mice; assay type: in vivo; settings: female, BALB/c nude, mouse, in vivo, iv, 20 pmol, total radioactivity
# Procedure: (§1) Then, after 7–11 days, when visible tumor xenografts were formed, groups of 5 mice were injected intravenously via a lateral tail vein with ~0.5 MBq of radiolabeled peptide, corresponding to 20 pmol of peptide, in a total volume of ~150 µL in PBS/0.5% BSA. Using an additional mouse per group, a blocking study was performed by co-injecting a 1000-fold molar excess of the respective peptide analog (20 nmol) together with the radiolabeled peptide. For quantification, a 1:1, 1:10 and 1:50 standard was prepared using aliquots of the injection solution mixed with PBS/0.5% BSA. Mice were euthanized by cervical dislocation 4 h after injection. Subsequently, a blood sample was collected, and different tissues were dissected. All samples, as well as the rest of the body were weighed, and the activity measured in the γ-counter together with the standard. Results were expressed as percentage of injected activity per gram of tissue (%IA/g).
# [2] = test system: A431-CCK2R/A431-mock xenografted BALB/c nude mice; assay: as above; assay type: in vivo; settings: mouse, in vivo
# Procedure: as §1
# [3] = Octanol/PBS distribution coefficient (logD7.4); assay type: physicochemical; settings: pH 7.4
# Procedure: (§2) The stability studies with the ^177Lu-labeled peptide analogs were carried out at a concentration of 0.5 nmol peptide/mL in fresh human serum (n = 2) for up to 24 h. A mixture of 0.05 nmol/mL of the radiolabeled peptides in PBS and octanol (1/1, v/v) was used to evaluate the octanol/PBS distribution coefficient (logD7.4; n = 8). To determine the protein binding in human serum by Sephadex G-50 size-exclusion chromatography (GE Healthcare Illustra, Little Chalfont, UK), a 25 µL serum sample was used for different time points after incubation. All steps were performed according to previously published protocols.
# [4] = in vivo; design: species or system mice; settings: female, BALB/c nude, mouse, iv, 20 pmol, total radioactivity
# Excerpt: (§3) Based on these preliminary studies, [^177Lu]Lu-2 was selected for further biodistribution studies evaluating the tumor uptake and tissue distribution for up to 7 days after injection. This study was approved by the Nijmegen Medical Center animal ethics committee (RUDEC) and the Dutch animal ethics committee (CCD) of the Radboud University (2020–0007-020). Female BALB/c nude mice were inoculated with A431-CCK2R cells at an age of 8–10 weeks (n = 20). When tumor xenografts were formed, mice were injected intravenously via a lateral tail vein with ~1 MBq of [^177Lu]Lu-2, corresponding to 20 pmol of peptide, in a total volume of 200 µL in PBS/0.5% BSA. For quantification, a 1% standard was used. At different time points of 1 h, 24 h, 3 days, and 7 days after injecton, animals were euthanized by CO2/O2-asphyxiation and a blood sample was immediately drawn, and tissues of interest (spleen, pancreas, stomach, intestine, kidneys, liver, heart, lung, muscle, femur, A431-CCK2R tumor, and A431-mock tumor) were dissected. All collected samples were weighed and measured in the γ-counter together with the standard. Results were expressed as percentage of injected activity per gram of tissue (%IA/g), and tumor-to-organ activity ratios were calculated for selected tissues. For dose-limiting organs, kidneys and stomach, dosimetry estimates were calculated using Olinda-EXM (version 2.2, Vanderbilt University) and standard weights for humans (male and female). For this purpose, the % IA/g determined in mice was extrapolated to humans using the following equation: % IA per organ in humans=[%IA/gin mice×mass of mice (kg)]×(mass of human organ (g)/total body mass of human (kg))
# [5] = test system: human serum proteins; assay: Protein binding in human serum by Sephadex G-50 size-exclusion chromatography; assay type: in vitro ADME
# Procedure: as §2
# [6] = design: species or system human
# Excerpt: as §3, with “At different time points of 1 h, 24 h, 3 days, and 7 days after injecton, animals were euthanized by CO2/O2-asphyxiation and a blood sample was immediately drawn, and tissues of interest (spleen, pancreas, stomach, intestine, kidneys, liver, heart, lung, muscle, femur, A431-CCK2R tumor, and A431-mock tumor) were dissected.” left out, “(kg)) […]” for “(kg))”
# [7] = uptake in A431-CCK2R xenografts
smiles,measurement,setting,value
"CCCC[C@@H](C(=O)N[C@@H](CC(=O)O)C(=O)N[C@@H](Cc1cccc2ccccc12)C(N)=O)N(C)C(=O)[C@H](Cc1c[nH]c2ccccc12)NC(=O)CCNC(=O)CC(O)CNC(=O)CC(O)CNC(=O)CN1CCN(CC(=O)O)CCN(CC(=O)O)CCN(CC(=O)O)CC1 (some centres unmarked) [[^177Lu]Lu-2, metal not drawn]",tissue to tissue ratio at 4 h,[1],17
same,tissue uptake at 4 h,[1]; [7],32.1 ± 4.05 %ID/g
same,tissue uptake at 4 h,[1]; uptake in A431-mock xenografts,0.22 ± 0.06 %ID/g
same,tissue uptake at 4 h,[1]; uptake in blood,0.03 ± 0.01 %ID/g
same,tissue uptake at 4 h,[1]; uptake in femur,0.22 ± 0.15 %ID/g
same,tissue uptake at 4 h,[1]; uptake in heart,0.07 ± 0.02 %ID/g
same,tissue uptake at 4 h,[1]; uptake in intestine,0.6 ± 0.12 %ID/g
same,tissue uptake at 4 h,[1]; uptake in kidneys,1.96 ± 0.29 %ID/g
same,tissue uptake at 4 h,[1]; uptake in liver,1.43 ± 0.18 %ID/g
same,tissue uptake at 4 h,[1]; uptake in lung,0.22 ± 0.06 %ID/g
same,tissue uptake at 4 h,[1]; uptake in muscle,0.06 ± 0.03 %ID/g
same,tissue uptake at 4 h,[1]; uptake in pancreas,0.72 ± 0.14 %ID/g
same,tissue uptake at 4 h,[1]; uptake in spleen,0.96 ± 0.3 %ID/g
same,tissue uptake at 4 h,[1]; uptake in stomach,4.3 ± 0.95 %ID/g
same,improvement in tumor-to-kidney ratio versus [177Lu]Lu-DOTA-MGS5,[2],more than 2 fold
same,logD,[3],-2.18 ± 0.38
same,tissue to tissue ratio at 1 h,[4]; Tumor-to-blood ratio,38.9
same,tissue to tissue ratio at 24 h,[4]; Tumor-to-blood ratio,3240
same,tissue to tissue ratio at 72 h,[4]; Tumor-to-blood ratio,4860
same,tissue to tissue ratio at 168 h,[4]; Tumor-to-blood ratio,241
same,tissue to tissue ratio at 1 h,[4]; Tumor-to-kidney ratio,19.8
same,tissue to tissue ratio at 24 h,[4]; Tumor-to-kidney ratio,25.5
same,tissue to tissue ratio at 72 h,[4]; Tumor-to-kidney ratio,~17
same,tissue to tissue ratio at 168 h,[4]; Tumor-to-kidney ratio,4
same,tissue to tissue ratio at 1 h,[4]; Tumor-to-stomach ratio,10.4
same,tissue to tissue ratio at 24 h,[4]; Tumor-to-stomach ratio,9.2
same,tissue to tissue ratio at 72 h,[4]; Tumor-to-stomach ratio,~6
same,tissue to tissue ratio at 168 h,[4]; Tumor-to-stomach ratio,1.4
same,tissue uptake at 1 h,[4]; [7],56.3 ± 9.14 %ID/g
same,tissue uptake at 24 h,[4]; [7],33.6 ± 2.95 %ID/g
same,tissue uptake at 72 h,[4]; [7],12.5 ± 0.96 %ID/g
same,tissue uptake at 168 h,[4]; [7],1.23 ± 0.53 %ID/g
same,tissue uptake at 1 h,[4]; uptake in blood,1.45 ± 0.3 %ID/g
same,tissue uptake at 168 h,[4]; uptake in blood,0.01 %ID/g
same,tissue uptake at 1 h,[4]; uptake in femur,0.23 ± 0.05 %ID/g
same,tissue uptake at 24 h,[4]; uptake in femur,0.05 ± 0.01 %ID/g
same,tissue uptake at 72 h,[4]; uptake in femur,0.03 ± 0.01 %ID/g
same,tissue uptake at 168 h,[4]; uptake in femur,0.04 ± 0.02 %ID/g
same,tissue uptake at 1 h,[4]; uptake in heart,0.62 ± 0.12 %ID/g
same,tissue uptake at 24 h,[4]; uptake in heart,0.05 ± 0.01 %ID/g
same,tissue uptake at 72 h,[4]; uptake in heart,0.02 %ID/g
same,tissue uptake at 168 h,[4]; uptake in heart,0.02 %ID/g
same,tissue uptake at 1 h,[4]; uptake in intestine,1 ± 0.34 %ID/g
same,tissue uptake at 24 h,[4]; uptake in intestine,0.16 ± 0.02 %ID/g
same,tissue uptake at 72 h,[4]; uptake in intestine,0.08 %ID/g
same,tissue uptake at 168 h,[4]; uptake in intestine,0.03 %ID/g
same,tissue uptake at 1 h,[4]; uptake in kidneys,2.84 ± 0.42 %ID/g
same,tissue uptake at 24 h,[4]; uptake in kidneys,1.32 ± 0.23 %ID/g
same,tissue uptake at 72 h,[4]; uptake in kidneys,0.72 ± 0.1 %ID/g
same,tissue uptake at 1 h,[4]; uptake in liver,0.95 ± 0.12 %ID/g
same,tissue uptake at 24 h,[4]; uptake in liver,0.38 ± 0.08 %ID/g
same,tissue uptake at 72 h,[4]; uptake in liver,0.18 ± 0.01 %ID/g
same,tissue uptake at 168 h,[4]; uptake in liver,0.06 ± 0.01 %ID/g
same,tissue uptake at 1 h,[4]; uptake in lung,4.33 ± 0.87 %ID/g
same,tissue uptake at 24 h,[4]; uptake in lung,0.09 ± 0.02 %ID/g
same,tissue uptake at 72 h,[4]; uptake in lung,0.06 ± 0.01 %ID/g
same,tissue uptake at 168 h,[4]; uptake in lung,0.02 ± 0.01 %ID/g
same,tissue uptake at 1 h,[4]; uptake in muscle,0.22 ± 0.05 %ID/g
same,tissue uptake at 24 h,[4]; uptake in muscle,0.03 %ID/g
same,tissue uptake at 72 h,[4]; uptake in muscle,0.01 %ID/g
same,tissue uptake at 168 h,[4]; uptake in muscle,0.01 ± 0.01 %ID/g
same,tissue uptake at 1 h,[4]; uptake in pancreas,0.85 ± 0.14 %ID/g
same,tissue uptake at 24 h,[4]; uptake in pancreas,0.41 ± 0.08 %ID/g
same,tissue uptake at 72 h,[4]; uptake in pancreas,0.28 ± 0.04 %ID/g
same,tissue uptake at 168 h,[4]; uptake in pancreas,0.16 ± 0.04 %ID/g
same,tissue uptake at 1 h,[4]; uptake in spleen,0.54 ± 0.08 %ID/g
same,tissue uptake at 24 h,[4]; uptake in spleen,0.19 ± 0.03 %ID/g
same,tissue uptake at 72 h,[4]; uptake in spleen,0.13 ± 0.02 %ID/g
same,tissue uptake at 168 h,[4]; uptake in spleen,0.09 ± 0.04 %ID/g
same,tissue uptake at 1 h,[4]; uptake in stomach,5.43 ± 1.05 %ID/g
same,tissue uptake at 24 h,[4]; uptake in stomach,3.66 ± 0.38 %ID/g
same,tissue uptake at 72 h,[4]; uptake in stomach,2.28 ± 0.33 %ID/g
same,tissue uptake at 168 h,[4]; uptake in stomach,0.88 ± 0.12 %ID/g
same,change in binding to human serum proteins compared to [177Lu]Lu-DOTA-MGS5,[5],2-fold decrease
same,decrease in protein binding compared to [177Lu]Lu-DOTA-MGS5,"[5]; human, serum",~ 50%
same,"cumulative absorbed radiation dose, kidneys",[6],< 5 Gy
same,"cumulative absorbed radiation dose, stomach",[6],< 10 Gy
